Results taken from US9840520B2, “Heterocyclic hydroxamic acids as protein deacetylase inhibitors and dual protein deacetylase-protein kinase inhibitors and methods of use thereof” (The Regents of the University of Colorado, A Body Corporate, priority 2014, dated 2017).

How the values were obtained:
Format in all cases: cell-based
[1] = system: BT-549; assay: NCI60 tumour cell line screen, BT-549; conditions: Homo sapiens; BT-549, Breast Cancer
[2] = system: UACC-257; assay: NCI60 tumour cell line screen, UACC-257; conditions: Homo sapiens; UACC-257, Melanoma
[3] = system: OVCAR-4; assay: NCI60 tumour cell line screen, OVCAR-4; conditions: Homo sapiens; OVCAR-4, Ovarian Cancer
[4] = system: HCC-2998; assay: NCI60 tumour cell line screen, HCC-2998; conditions: Homo sapiens; HCC-2998, Colon Cancer
[5] = system: SK-OV-3; assay: NCI60 tumour cell line screen, SK-OV-3; conditions: Homo sapiens; SK-OV-3, Ovarian Cancer
[6] = system: SN12C; assay: NCI60 tumour cell line screen, SN12C; conditions: Homo sapiens, Renal Cancer
[7] = system: A498; assay: NCI60 tumour cell line screen, A498; conditions: Homo sapiens; A498, Renal Cancer
[8] = system: UACC-62; assay: NCI60 tumour cell line screen, UACC-62; conditions: Homo sapiens; UACC-62, Melanoma
[9] = system: OVCAR-5; assay: NCI60 tumour cell line screen, OVCAR-5; conditions: Homo sapiens; OVCAR-5, Ovarian Cancer
[10] = system: 786-0; assay: NCI60 tumour cell line screen, 786-0; conditions: Homo sapiens; 786-0, Renal Cancer
[11] = system: SF-268; assay: NCI60 tumour cell line screen, SF-268; conditions: Homo sapiens; SF-268, CNS Cancer
[12] = system: HL-60(TB); assay: NCI60 tumour cell line screen, HL-60(TB); conditions: Homo sapiens, Leukemia
[13] = system: HOP-62; assay: NCI60 tumour cell line screen, HOP-62; conditions: Homo sapiens; HOP-62, Non-Small Cell Lung Cancer
[14] = system: MCF7; assay: NCI60 tumour cell line screen, MCF7; conditions: Homo sapiens; MCF7, Breast Cancer
[15] = system: NCI/ADR-RES; assay: NCI60 tumour cell line screen, NCI/ADR-RES; conditions: Homo sapiens, Ovarian Cancer
[16] = system: ACHN; assay: NCI60 tumour cell line screen, ACHN; conditions: Homo sapiens, Renal Cancer
[17] = system: M14; assay: NCI60 tumour cell line screen, M14; conditions: Homo sapiens; M14, Melanoma
[18] = system: CCRF-CEM; assay: NCI60 tumour cell line screen, CCRF-CEM; conditions: Homo sapiens, Leukemia
[19] = system: SNB-19; assay: NCI60 tumour cell line screen, SNB-19; conditions: Homo sapiens; SNB-19, CNS Cancer
[20] = system: SF-295; assay: NCI60 tumour cell line screen, SF-295; conditions: Homo sapiens; SF-295, CNS Cancer
[21] = system: DU-145; assay: NCI60 tumour cell line screen, DU-145; conditions: Homo sapiens; DU-145, Prostate Cancer
[22] = system: SK-MEL-2; assay: NCI60 tumour cell line screen, SK-MEL-2; conditions: Homo sapiens; SK-MEL-2, Melanoma
[23] = system: OVCAR-3; assay: NCI60 tumour cell line screen, OVCAR-3; conditions: Homo sapiens; OVCAR-3, Ovarian Cancer
[24] = system: TK-10; assay: NCI60 tumour cell line screen, TK-10; conditions: Homo sapiens; TK-10, Renal Cancer
[25] = system: NCI-H23; assay: NCI60 tumour cell line screen, NCI-H23; conditions: Homo sapiens; NCI-H23, Non-Small Cell Lung Cancer
[26] = system: HS578T; assay: NCI60 tumour cell line screen, HS578T; conditions: Homo sapiens, Hs-578T, Breast Cancer
[27] = system: RXF393; assay: NCI60 tumour cell line screen, RXF393; conditions: Homo sapiens, RXF 393; RXF393, Renal Cancer
[28] = system: NCI-H522; assay: NCI60 tumour cell line screen, NCI-H522; conditions: Homo sapiens; NCI-H522, Non-Small Cell Lung Cancer
[29] = system: MOLT-4; assay: NCI60 tumour cell line screen, MOLT-4; conditions: Homo sapiens; MOLT-4, Leukemia
[30] = system: OVCAR-8; assay: NCI60 tumour cell line screen, OVCAR-8; conditions: Homo sapiens; OVCAR-8, Ovarian Cancer
[31] = system: NCI-H460; assay: NCI60 tumour cell line screen, NCI-H460; conditions: Homo sapiens; NCI-H460, Non-Small Cell Lung Cancer
[32] = system: MDA-MB-468; assay: NCI60 tumour cell line screen, MDA-MB-468; conditions: Homo sapiens; MDA-MB-468, Breast Cancer
[33] = system: SK-MEL-28; assay: NCI60 tumour cell line screen, SK-MEL-28; conditions: Homo sapiens; SK-MEL-28, Melanoma
[34] = system: U251; assay: NCI60 tumour cell line screen, U251; conditions: Homo sapiens, U-251; U251, CNS Cancer
[35] = system: K-562; assay: NCI60 tumour cell line screen, K-562; conditions: Homo sapiens, K562; K-562, Leukemia
[36] = system: MDA-MB-435; assay: NCI60 tumour cell line screen, MDA-MB-435; conditions: Homo sapiens; MDA-MB-435, Melanoma
[37] = system: UO-31; assay: NCI60 tumour cell line screen, UO-31; conditions: Homo sapiens; UO-31, Renal Cancer
[38] = system: CAKI-1; assay: NCI60 tumour cell line screen, CAKI-1; conditions: Homo sapiens; CAKI-1, Renal Cancer
[39] = system: SK-MEL-5; assay: NCI60 tumour cell line screen, SK-MEL-5; conditions: Homo sapiens; SK-MEL-5, Melanoma
[40] = system: IGROV1; assay: NCI60 tumour cell line screen, IGROV1; conditions: Homo sapiens, IGROV-1; IGROV1, Ovarian Cancer
[41] = system: SNB-75; assay: NCI60 tumour cell line screen, SNB-75; conditions: Homo sapiens; SNB-75, CNS Cancer
[42] = system: NCI-H322M; assay: NCI60 tumour cell line screen, NCI-H322M; conditions: Homo sapiens, Non-Small Cell Lung Cancer
[43] = system: SW-620; assay: NCI60 tumour cell line screen, SW-620; conditions: Homo sapiens; SW-620, Colon Cancer
[44] = system: A549/ATCC; assay: NCI60 tumour cell line screen, A549/ATCC; conditions: Homo sapiens, Non-Small Cell Lung Cancer

O=C(CCCCCOc1ccc(Nc2nc(NC3CCCCC3)c3nc[nH]c3n2)cc1)NO [Example 3, 6-(4-(6-(cyclohexylamino)-9H-purin-2-ylamino)phenoxy)-N-hydroxyhexanamide]
GI50 [1]: 5510 nM
GI50 [2]: 2940 nM
GI50 [3]: 3820 nM
GI50 [4]: 3580 nM
GI50 [5]: 2520 nM
GI50 [6]: 3230 nM
GI50 [7]: 195 nM
GI50 [8]: 2220 nM
GI50 [9]: 2260 nM
GI50 [10]: 4610 nM
GI50 [11]: 3830 nM
GI50 [12]: 2950 nM
GI50 [13]: 2960 nM
GI50 [14]: 1460 nM
GI50 [15]: 13500 nM
GI50 [16]: 3570 nM
GI50 [17]: 1960 nM
GI50 [18]: 667 nM
GI50 [19]: 5960 nM
GI50 [20]: 2350 nM
GI50 [21]: 2510 nM
GI50 [22]: 2930 nM
GI50 [23]: 2170 nM
GI50 [24]: 2680 nM
GI50 [25]: 4730 nM
GI50 [26]: 1610 nM
GI50 [27]: 1900 nM
GI50 [28]: 2720 nM
GI50 [29]: 1780 nM
GI50 [30]: 2800 nM
GI50 [31]: 2040 nM
GI50 [32]: 2400 nM
GI50 [33]: 3640 nM
GI50 [34]: 1960 nM
GI50 [35]: 2030 nM
GI50 [36]: 2460 nM
GI50 [37]: 3520 nM
GI50 [38]: 4680 nM
GI50 [39]: 2820 nM
GI50 [40]: 2240 nM
GI50 [41]: 1690 nM
GI50 [42]: 3000 nM
GI50 [43]: 895 nM
GI50 [44]: 2300 nM
